Laboratory results reported in patent US20050009924A1 (priority 2003, published 2005).
Where two headings read alike, the source gives them in different places.

Legend:
human hepatoma G2 cells = assay: Cytotoxicity assay (XTT colorimetric), Hep G2; format: cell-based; conditions: 48 h of drug exposure
rat glioma C6 cells = assay: Cytotoxicity assay (XTT colorimetric), C6 cells; format: cell-based; conditions: 48 h of drug exposure
[1] = test system: transcriptional activity of hTERT; assay: SEAP reporter assay of hTERT expression, PhTERT-SEAP (hTERT-BJ1); format: cell-based, human; conditions: hTERT-BJ1
Method in brief: (§1)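 H1299 or hTERT-BJ1 cells stably carrying hTERT- or CMV-promoter–SEAP constructs (G418-selected), treated with compounds for 24 h at 37 °C. Media heated 65 °C for 10 min, mixed with diethanolamine buffer and 12 mM p-nitrophenyl phosphate; SEAP activity taken as the rate of A405 increase.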

[2] = test system: transcriptional activity of hTERT; assay: SEAP reporter assay of hTERT expression, PhTERT-SEAP (H1299); format: cell-based, human; conditions: for Relative SEAP activity (%): hTERT-H1299
Method in brief: as §1

CMV promoter = assay: SEAP reporter assay of CMV promoter activity, PCMV-SEAP (hTERT-BJ1); format: cell-based; conditions: Homo sapiens, read-out: Relative SEAP activity (%)
[3] = MTT relative viability, PCMV-SEAP (hTERT-BJ1) cells; format: cell-based; conditions: human, stable PCMV-SEAP reporter clone
Excerpt: Culture media were changed every 3 days. […] The stable clones were selected using G418.

[4] = MTT relative viability, PhTERT-SEAP (H1299) cells; conditions: human
[5] = MTT relative viability, PhTERT-SEAP (hTERT-BJ1) cells; conditions: human
Description: (§2) The tetrazolium reagent (MTT; 3-(4,5-di-methylthiazol)-2,5-diphenyl tetrazolium bromide, USB) was designed to yield a colored formazan upon metabolic reduction by viable cells. Approximately […] cells were plated onto each well of a 96-well plate and incubated in 5% CO2 at 37° C. for 24 h. To assess the in vitro cytotoxicity, each compound was dissolved in DMSO and prepared immediately before the experiments and was diluted into the complete medium before addition to cell cultures. Test compounds were then added to the culture medium for designated various concentrations. After 48 h, an amount of 25 μL of MTT was added to each well, and the samples were incubated at 37° C. for 4 h. A 100 μL solution of lysis buffer containing 20% SDS and 50% N,N-dimethylformamide was added to each well and incubated at 37° C. for another 16 h. The absorbency at 550 nm was measured using an ELISA reader.
(§3) Non small lung cancer cells H1299 (telomerase positive) were grown in RPMI 1640 media supplemented with 10% fetal bovine serum, 100 units/mL penicillin and 100 mg/mL streptomycin in a humidified atmosphere with 5% CO2 at 37° C. The hTERT immortalized hTERT-BJ1 (BD Biosciences Clontech)^39 were grown in DMEM media supplemented with 10% fetal calf serum, 100 units/mL penicillin and 100 mg/mL streptomycin, 1 mM sodium pyruvate, and 4 mM I-arginine in a humidified atmosphere with 5% CO2 at 37° C. Culture media were changed every 3 days. […] The stable clones derived from H1299 or hTERT-BJ1 were cultured using conditions that are similar to their parental cells.

[6] = test system: iron-induced lipid peroxidation in rat brain homogenates; assay: Iron-induced lipid peroxidation in rat brain homogenates; conditions: for Inhibition of LP(10 mM): mean percent inhibition (Table 3); for LP (%) (10 mM): relative percentage of inhibition (Table 1)
[7] = test system: hepatitis B virus transfected hepatoma cell lines, HepG 2.2.15 cells; assay: Cytotoxicity assay, 2.2.15 cells; format: cell-based, human; conditions: 48 h of drug exposure
[8] = test system: non-small-cell lung cancer cells H1299
[9] = Homo sapiens, read-out: Relative SEAP activity (%)
[10] = Homo sapiens, NCI-H1299, H1299, read-out: Relative SEAP activity (%)

Description for hTERT-BJ1 cells: as §2, §3

Row | SMILES | IC50 (human hepatoma G2 cells; Homo sapiens, HepG2) [µM] | IC50 (rat glioma C6 cells; Rattus norvegicus, C6) [µM] | melting point [°C] | activity at 2.2 µM [1, 9] [%] | activity at 22 µM [1, 9] [%] | activity at 220 µM [1, 9] [%] | activity at 2.2 µM [2, 10] [%] | activity at 22 µM [2, 10] [%] | activity at 220 µM [2, 10] [%] | viability at 48 h, 2.2 µM [4] [%] | viability at 48 h, 22 µM [4] [%] | viability at 48 h, 220 µM [4] [%] | viability at 48 h, 2.2 µM [5] [%] | viability at 48 h, 22 µM [5] [%] | viability at 48 h, 220 µM [5] [%] | LP (%) (10 mM) ([6]; 10 mM) | further results
1 | CCC(=O)Oc1cccc2c1C(=O)c1cccc(OC(=O)CC)c1C2=O [IIIa, 1,5-Bis(propionyloxy)-anthraquinone] | 4.1 ± 0.5 | 21.1 ± 1.6 | 230 to 231 |  |  |  |  |  |  |  |  |  |  |  |  |  | activity at 2.8 µM ([1]; Homo sapiens, 2.8 μM, read-out: Relative SEAP activity (%)): 131 ± 7%; activity at 28 µM ([1]; Homo sapiens, 28 μM, read-out: Relative SEAP activity (%)): 152 ± 16.7%; activity at 280 µM ([1]; Homo sapiens, 280 μM, read-out: Relative SEAP activity (%)): 161 ± 12.2%; activity at 2.8 µM ([2]; Homo sapiens, NCI-H1299, 2.8 μM, H1299, read-out: Relative SEAP activity (%)): 103 ± 5.8%; activity at 28 µM ([2]; Homo sapiens, NCI-H1299, 28 μM, H1299, read-out: Relative SEAP activity (%)): 107 ± 4.9%; activity at 280 µM ([2]; Homo sapiens, NCI-H1299, 280 μM, H1299, read-out: Relative SEAP activity (%)): 97 ± 3.1%; activity at 2.8 µM (CMV promoter; 2.8 μM): 101 ± 6%; activity at 28 µM (CMV promoter; 28 μM): 112 ± 6%; activity at 280 µM (CMV promoter; 280 μM): 138 ± 12%; viability at 48 h, 2.8 µM ([3]; 2.8 μM): 114 ± 16%; viability at 48 h, 28 µM ([3]; 28 μM): 110 ± 12%; viability at 48 h, 280 µM ([3]; 280 μM): 94 ± 21%; viability at 48 h, 2.8 µM [4]: 116 ± 8%; viability at 48 h, 28 µM [4]: 116 ± 7.4%; viability at 48 h, 280 µM [4]: 87 ± 6.6%; viability at 48 h, 2.8 µM [5]: 99 ± 11.9%; viability at 48 h, 28 µM [5]: 109 ± 8.7%; viability at 48 h, 280 µM [5]: 93 ± 10.8%; Inhibition of LP(10 mM) ([6]; 10 mM): −100%
2 | CC(C)(C)C(=O)Oc1cccc2c1C(=O)c1cccc(OC(=O)C(C)(C)C)c1C2=O [IIId, 1,5-Bis(pivaloyloxy)-anthraquinone] | 13.7 ± 1.8 | 12 ± 1.5 | 166 to 167 |  |  |  |  |  |  |  |  |  |  |  |  |  | activity at 2.4 µM ([1]; Homo sapiens, 2.4 μM, read-out: Relative SEAP activity (%)): 147 ± 11.1%; activity at 24 µM ([1]; Homo sapiens, 24 μM, read-out: Relative SEAP activity (%)): 165 ± 18.7%; activity at 240 µM ([1]; Homo sapiens, 240 μM, read-out: Relative SEAP activity (%)): 141 ± 14.4%; activity at 2.4 µM ([2]; Homo sapiens, NCI-H1299, 2.4 μM, H1299, read-out: Relative SEAP activity (%)): 105 ± 4.9%; activity at 24 µM ([2]; Homo sapiens, NCI-H1299, 24 μM, H1299, read-out: Relative SEAP activity (%)): 78 ± 14.8%; activity at 240 µM ([2]; Homo sapiens, NCI-H1299, 240 μM, H1299, read-out: Relative SEAP activity (%)): 80 ± 10.1%; activity at 2.4 µM (CMV promoter; 2.4 μM): 102 ± 10%; activity at 24 µM (CMV promoter; 24 μM): 114 ± 18%; activity at 240 µM (CMV promoter; 240 μM): 141 ± 11%; viability at 48 h, 2.4 µM ([3]; 2.4 μM): 115 ± 7%; viability at 48 h, 24 µM ([3]; 24 μM): 104 ± 8%; viability at 48 h, 240 µM ([3]; 240 μM): 103 ± 11%; viability at 48 h, 2.4 µM [4]: 106 ± 8.9%; viability at 48 h, 24 µM [4]: 97 ± 7.1%; viability at 48 h, 240 µM [4]: 70 ± 5.2%; viability at 48 h, 2.4 µM [5]: 94 ± 3.4%; viability at 48 h, 24 µM [5]: 93 ± 6%; viability at 48 h, 240 µM [5]: 100 ± 9%; Inhibition of LP(10 mM) ([6]; 10 mM): −23 ± 1.1^ %
3 | Nc1ccccc1Sc1cccc2c1C(=O)c1cccc(Sc3ccccc3N)c1C2=O [IIf, 1,5-Bis(o-aminophenylthio)-Anthraquinone] | 34 ± 1.7 | 15.1 ± 1.7 | 283 to 284 | 136 ± 17.5 | 141 ± 18.2 | 115 ± 29.7 | 108 ± 12.2 | 96 ± 8.4 | 59 ± 6.6 | 94 ± 3.5 | 50 ± 3.3 | 14 ± 2.5 | 103 ± 7.9 | 107 ± 5.5 | 25 ± 3.3 | 5 ± 0.5 | activity at 2.2 µM (CMV promoter; 2.2 μM): 103 ± 8%; activity at 22 µM (CMV promoter): 102 ± 10%; activity at 220 µM (CMV promoter): 122 ± 8%; viability at 48 h, 2.2 µM ([3]; 2.2 μM): 108 ± 9%; viability at 48 h, 22 µM [3]: 109 ± 4%; viability at 48 h, 220 µM [3]: 48 ± 6%
4 | Nc1ccc(Sc2cccc3c2C(=O)c2cccc(Sc4ccc(N)cc4)c2C3=O)cc1 [IIh, 1,5-Bis(p-aminophenylthio)-Anthraquinone] | 17.4 ± 1.5 | 0.05 ± 0.01 | 364 to 365 | 97 ± 17.9 | 97 ± 14.5 | 26 ± 12.6 | 100 ± 5.7 | 95 ± 2.6 | 84 ± 5.3 | 103 ± 4.3 | 76 ± 4 | 42 ± 2.3 | 86 ± 11.9 | 65 ± 12.6 | 56 ± 13.8 | 20 ± 1.4 | 
5 | O=C1c2cccc(SCc3ccccc3)c2C(=O)c2cccc(SCc3ccccc3)c21 [IIi, 1,5-Bis(benzylthio)-anthraquinone] | 41.5 ± 2.5 | 38.2 ± 4.4 | 281 to 282 | 117 ± 11.3 | 112 ± 9.3 | 87 ± 11.1 | 97 ± 6 | 100 ± 7.2 | 100 ± 12.9 | 83 ± 5.5 | 44 ± 0.9 | 34 ± 3.3 | 121 ± 4.7 | 98 ± 4.2 | 47 ± 9.1 | >100 | Inhibition (%) ([6]; 0.01 mM): 24 ± 0.8%; Inhibition (%) ([6]; 0.1 mM): 60 ± 2.0%; Inhibition (%) ([6]; 1 mM): 95%; Inhibition (%) ([6]; 10 mM): >100%
6 | COc1ccc(CSc2cccc3c2C(=O)c2cccc(SCc4ccc(OC)cc4)c2C3=O)cc1 [IIj, 1,5-Bis(p-methoxybenzylthio)-Anthraquinone] | 28.6 ± 1.2 | 25.1 ± 2.8 | 297 to 299 | 142 ± 27.7 | 141 ± 22.6 | 118 ± 19.2 | 92 ± 3.3 | 96 ± 8.5 | 88 ± 5.6 | 89 ± 6.1 | 59 ± 5.4 | 42 ± 0.3 | 119 ± 9.4 | 98 ± 13.4 | 62 ± 6.4 | 67 ± 2.9 | activity at 2 µM (CMV promoter; 2.0 μM): 103 ± 15%; activity at 22 µM (CMV promoter): 102 ± 8%; activity at 220 µM (CMV promoter): 100 ± 8%; viability at 48 h, 2 µM ([3]; 2.0 μM): 116 ± 13%; viability at 48 h, 22 µM [3]: 67 ± 18%; viability at 48 h, 220 µM [3]: 52 ± 7%
7 | O=C1c2cccc(SCCc3ccccc3)c2C(=O)c2cccc(SCCc3ccccc3)c21 [IIk, 1,5-Bis(phenylethylthio)-anthraquinone] | 36.9 ± 1.5 | 32.9 ± 3.3 | 209 to 210 | 119 ± 12.2 | 109 ± 23.4 | 110 ± 30.6 | 108 ± 0.5 | 102 ± 0.5 | 97 ± 4.8 | 93 ± 6.2 | 51 ± 9.3 | 27 ± 2.9 | 91 ± 3.9 | 54 ± 4.4 | 35 ± 4.1 | 69 ± 1.5 | 
8 | O=C1c2cccc(NCCO)c2C(=O)c2cccc(NCCO)c21 [IVb, 1,5-Bis(ethanolamino)anthraquinone] |  |  |  |  |  |  |  |  |  |  |  |  |  |  |  |  | IC50 (human hepatoma G2 cells): > 20 µM; IC50 (rat glioma C6 cells): > 20 µM; IC50 [7]: 19.3 µM; Relative SEAP activity (%) ([1]; 3.0 μM): 45 ± 20.6%; Relative SEAP activity (%) ([1]; 30 μM): 16 ± 13.1%; Relative SEAP activity (%) ([1]; 308 μM): 11 ± 11.6%; Relative SEAP activity (%) ([2]; 3.0 μM): 91 ± 3.9%; Relative SEAP activity (%) ([2]; 30 μM): 88 ± 4.5%; Relative SEAP activity (%) ([2]; 308 μM): 5.7 ± 1.1%; Relative MTT viability (%) (hTERT-BJ1 cells; 3 µM): 116 ± 5.6%; Relative MTT viability (%) (hTERT-BJ1 cells; 30 µM): 90 ± 26.9%; Relative MTT viability (%) (hTERT-BJ1 cells; 308 µM): 69 ± 18.7%; Relative MTT viability (%) ([8]; 3 µM): 105 ± 6.3%; Relative MTT viability (%) ([8]; 30 µM): 88 ± 9.1%; Relative MTT viability (%) ([8]; 308 µM): 53 ± 2.8%
